Where “and” joins values, the source holds several entries; their conditions need not be identical. Equal entries are not always repeated. Where two headings read alike, the source gives them in different places.
Tests used:
[1] = Urinary excretion and pharmacokinetics after a single oral dose of 50 mg of pure ecdysterone (LC-MS/MS of urine); type: in vivo, human; conditions: for Subjects in whose post-administration urine the analyte was detected: 12 subjects; for Cmax / half-life / Tmax: both sexes; for Cmax / half-life: human, po, 50 mg; for Tmax: read-out: Tmax (time to maximum urinary concentration); for Cumulative urinary excretion percentage relative to dose, mean / Cumulative urinary excretion percentage relative to dose, range over subjects: percent of the 50 mg dose; for Cumulative urinary excretion percentage relative to dose, mean: mean value; for Cumulative Du (cumulative amount excreted in urine): mean ± SD of 12 subjects (14-deoxy-poststerone n = 10); for Kinetics of urinary elimination: log-linear rate of excretion versus middle-point time; for Difference of cumulative urinary excretion percentage between male and female (T-test): p ≤ 0.05, 5 males, 7 females
Experimental: The study was approved by the ethical committee of the German Sport University Cologne, and was carried out following the regulations of the Helsinki declaration. Twelve healthy subjects (7 females and 5 males) with a mean age (standard deviation [SD]) of 26 (3.1) y, weight of 74 (12.0) kg, and height of 174 (8.3) cm participated in the study. A single-dose of 50 mg of pure ecdysterone dissolved in 50 cl of alcoholic solution was administered to the subjects. All doses were administered at 9.00 a.m. in the morning. The urine samples were collected one day before (blank samples) and five days after the administration of ecdysterone. Sampling time (h) and urine volume (mL) were recorded. Aliquots of urine samples were stored frozen at −18 °C, until analysis.
Urine samples (200 µL) spiked with 10 µL of the ISTD ponasterone (working solution 10 µg/mL) and diluted to 1 mL with methanol:water (10:90, v/v). The tubes were vortex-mixed and then centrifuged at 9677 RCF for 8 min.
The analysis of ecdysterone and its metabolite in calibration and urine samples was performed by LC–MS/MS on an Agilent 1200 Infinity series, coupled to an Ultivo triple quadrupole tandem MS system, utilizing a Jet Stream electrospray ionization (ESI) source and an Ion Funnel (Agilent Technologies GmbH, Waldronn, Germany).
In this study, the excretion profile, the cumulative amount excreted in urine, and the half-life of ecdysterone and its metabolites, after a single-dose administration of 50 mg of pure ecdysterone were evaluated according to [45].
To obtain the excretion rates, Equation (1) was applied:(1) Erate,i=Ci x Vi/ (ti−ti−1)
For each urine sample, the calculated concentration (Ci, ng/mL) of ecdysterone, 14-deoxy-ecdysterone, and 14-deoxy-poststerone was adjusted as a function of the dilution factor applied (1:5) and of the volume of urine collected (Vi, mL), obtaining the corresponding amount of drug in urine (expressed in ng), which was divided by the interval between the time values of the sampling and the previous sampling (ti − ti−1).
The excretion profile curves of ecdysterone and its metabolites for each subject were then obtained by plotting the calculated rate of excretion values (ng/h) versus time (middle-point of sample collection, hours) or simply the calculated concentrations (ng/mL) versus time (sampling time, hours). The first collected interval started at 0 h after the oral administration of ecdysterone at 9 a.m.
For each sample, the amount of drug excreted in urine was calculated and added to the amount of drug recovered in the previous urine sample to obtain the cumulative urinary drug excretion, which was plotted in a graph versus the sampling time (hours).
The half-life using the elimination rate constant (k) was calculated by applying Equation (2):(2) t1/2=ln(2)/k
Two different methods were used to calculate the elimination rate constant (k). In the rate of excretion method, k was obtained from the slope of the elimination phase of the ln-transformed excretion curve (Figure 6).
In the sigma minus method, k was obtained from the slope of the elimination phase of the ln-transformed remaining drug to be excreted.

[2] = Stability of analytes in spiked urine QC samples (bench-top, long term, freeze-thaw); type: in vitro ADME, human; conditions: vs t = 0, mean n = 3
Experimental: The stability of ecdysterone and 14-deoxy-ecdysterone in urine was determined in triplicates, using the LQC and HQC samples, which were analyzed immediately and again after storage, as reported in Table 4. Freshly prepared QC samples (at t = 0) were used as baseline to assess the stability.
To evaluate the bench-top stability, LQC and HQC samples were left at room temperature for 4, 8, and 24 h, before analysis. Freeze and thaw stability was evaluated after three cycles for LQC and HQC. Long-term stability was evaluated analyzing the LQC and HQC samples, after storing them at −20 °C for two weeks. The results of the stability tests applied were calculated using the peak area ratio of the analytes to the ISTD, which were compared to the baseline (t = 0). Comparing the mean of the ratios after a specific storage condition to the mean of the ratio at t = 0. The results obtained were all within the ±15%.

[3] = single oral dose 50 mg ecdysterone
[4] = urine, human urine, single oral dose 50 mg ecdysterone, mean ± SD of 12 subjects (14-deoxy-poststerone n = 5), read-out: Cmax (maximum urinary concentration)
[5] = urine, human urine, single oral dose 50 mg ecdysterone, mean ± SD of 12 subjects (14-deoxy-poststerone n = 5), read-out: Half Life, Rate of Excretion method (converted)
[6] = urine, human urine, single oral dose 50 mg ecdysterone, mean ± SD of 12 subjects (14-deoxy-poststerone n = 5), read-out: Half Life, Sigma-Minus method (converted)
[7] = urine, human urine, single oral dose 50 mg ecdysterone, range over subjects, read-out: Maximum urinary concentration (Cmax), range over subjects
[8] = human urine, single oral dose 50 mg ecdysterone, mean ± SD of 12 subjects (14-deoxy-poststerone n = 5)
[9] = human urine, range over subjects
[10] = human urine, single oral dose 50 mg ecdysterone
[11] = human urine, single oral dose 50 mg ecdysterone, range over subjects
[12] = HQC, bench-top room temperature 4 h
[13] = HQC, bench-top room temperature 8 h
[14] = HQC, bench-top room temperature 24 h
[15] = HQC, long term 2 weeks at −20 °C
[16] = LQC, bench-top room temperature 4 h
[17] = LQC, bench-top room temperature 8 h
[18] = LQC, bench-top room temperature 24 h
[19] = LQC, long term 2 weeks at −20 °C

Structure (SMILES)	Subjects in whose post-administration urine the analyte was detected [1, 3]	Cmax [1, 4] [ng/mL]	half-life [1, 5] [h]	half-life [1, 6] [h]	Cmax [1, 7] [ng/mL]	Tmax [1, 8] [h]	Cumulative urinary excretion percentage relative to dose, mean ([1]; human urine) [%]	Cumulative urinary excretion percentage relative to dose, range over subjects [1, 9]	Duration of detectability in urine [1, 10]	First detection in urine after administration (start of detection window) [1, 10] [h]	Remained detectable in urine until (end of detection window) [1, 10] [h]	Urinary half-life (approximate) [1, 10]	ERmax (maximum urinary rate of excretion) [1, 8] [mg/h]	Midpoint Timemax (maximum urinary middle-point time) [1, 8] [h]	Cumulative Du (cumulative amount excreted in urine) [1, 10] [mg]	Maximum excretion rate, range over subjects [1, 11] [mg/h]	Time of the urine with maximum concentration, range over subjects [1, 11]	Time of the urine with maximum excretion rate, range over subjects [1, 11] [h]	Kinetics of urinary elimination [1]	Difference of cumulative urinary excretion percentage between male and female (T-test) [1]	also measured
CC(C)(O)CC[C@@H](O)[C@](C)(O)[C@H]1CC[C@H]2C3=CC(=O)[C@@H]4C[C@@H](O)[C@@H](O)C[C@]4(C)[C@H]3CC[C@]12C [14-deoxy-ecdysterone, Alpha-14-deoxy-ecdysterone]	all 12 subjects	1400 ± 1600	3.1 ± 1.3	2.2 ± 0.9	100 to 6000	19.7 ± 8.9	2.3	0.4–6.1%	about 3 days	2.95	75	three	0.1 ± 0.1	17.5 ± 7.0	1.1 ± 0.9	0.02 to 0.24	8.5 to 39.5 h and 8.5 to 39.50 h	10.1 to 29.5	first-order kinetics	No significant difference	half-life ([1]; urine, human urine, single oral dose 50 mg ecdysterone, read-out: Urinary half-life (approximate) (converted)): ~3 h; Time at which cumulative urinary excretion reaches a plateau ([1]; in 58.3% of subjects): 25 to 40 h; Time at which cumulative urinary excretion reaches a plateau ([1]; in the remaining 16.6% of subjects): 40 to 62 h; Stability% [2, 12]: 101%; Stability% [2, 13]: 100%; Stability% [2, 14]: 101%; Stability% ([2]; HQC, freeze-thaw 3 cycles): 103%; Stability% [2, 15]: 87%; Stability% [2, 16]: 103%; Stability% [2, 17]: 101%; Stability% [2, 18]: 97%; Stability% ([2]; LQC, freeze-thaw 3 cycles): 110%; Stability% [2, 19]: 91%
CC(=O)[C@H]1CC[C@H]2C3=CC(=O)[C@@H]4C[C@@H](O)[C@@H](O)C[C@]4(C)[C@H]3CC[C@]12C [14-deoxy-poststerone, alpha-14-deoxy-poststerone]	10 out of 12	800 ± 700	9.7 ± 9.5	4.4 ± 1	100 to 1500	30.1 ± 7.2	1.5	0.01–4.9%	about 4 days	8.50	97		0.1 ± 0.1	27.8 ± 3.7	0.7 ± 1.1		23.3 to 41.3 h			significant difference	
CC(C)(O)CC[C@@H](O)[C@](C)(O)[C@H]1CC[C@@]2(O)C3=CC(=O)[C@@H]4C[C@@H](O)[C@@H](O)C[C@]4(C)[C@H]3CC[C@]12C [Ecdysterone, 2β,3β,14α,20β,22R,25-hexahydroxy-5β-cholest-7-en-6-one]	all subjects						18	2.8–47.2%	more than 2 days		58	three	1.7 ± 1.4	2.1 ± 1.3	8.8 ± 6.6	0.1 to 4.8	2.8 to 8.5 h	0.4 to 4.4	first-order kinetics	No significant difference	Cmax ([1]; in vivo, human urine, single oral dose 50 mg ecdysterone, mean ± SD of 12 subjects (14-deoxy-poststerone n = 5), read-out: Cmax (maximum urinary concentration)): 12100 ± 9200 ng/mL; half-life ([1]; in vivo, human urine, single oral dose 50 mg ecdysterone, mean ± SD of 12 subjects (14-deoxy-poststerone n = 5), read-out: Half Life, Rate of Excretion method (converted)): 3.4 ± 1 h; half-life ([1]; in vivo, human urine, single oral dose 50 mg ecdysterone, mean ± SD of 12 subjects (14-deoxy-poststerone n = 5), read-out: Half Life, Sigma-Minus method (converted)): 3 ± 1 h; Cmax ([1]; in vivo, human urine, single oral dose 50 mg ecdysterone, range over subjects, read-out: Maximum urinary concentration (Cmax), range over subjects): 4400 to 30000 ng/mL; half-life ([1]; in vivo, human urine, single oral dose 50 mg ecdysterone, read-out: Urinary half-life (approximate) (converted)): ~3 h; Tmax ([1]; in vivo, human urine, single oral dose 50 mg ecdysterone, mean ± SD of 12 subjects (14-deoxy-poststerone n = 5)): 4.6 ± 1.8 h; Time at which cumulative urinary excretion reaches a plateau ([1]; human urine, post-dosage): 12 h; First detection in urine after administration [1, 10]: 45 min; Kinetics of urinary elimination ([1]; listed as ecdysterone): first-order; Stability% [2, 12]: 101%; Stability% [2, 13]: 98%; Stability% [2, 14]: 100%; Stability% ([2]; HQC, freeze-thaw 3 cycles): 103%; Stability% [2, 15]: 87%; Stability% [2, 16]: 100%; Stability% [2, 17]: 104%; Stability% [2, 18]: 100%; Stability% ([2]; LQC, freeze-thaw 3 cycles): 111%; Stability% [2, 19]: 94%
